Reference: PubChem BioAssay (NCI)
Several values for one entry are separate records, joined by “and”; a condition that tells them apart may be missing. Identical values can stand only once.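 48-hour exposure; five concentrations; linearly interpolated endpoints. GI50: concentration for 50% inhibition of growth. TGI: concentration producing complete growth inhibition.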

These compounds were tested on UACC-257 melanoma (assay: growth of human tumour cells (NCI), 48 h).

Compound	TGI	GI50
CNC(=S)N(C)C(=S)Nn1c(=O)c(C)nn(C)c1=S	> 100 µM	–
CCCCCCCCCC/C=C/CC(=O)SCCNC(=O)CCNC(=O)[C@@H](O)C(C)(C)COP(=O)(O)OP(=O)(O)OCC1OC(n2cnc3c(N)ncnc32)C(O)C1OP(=O)(O)O (stereo not given in full)	> 10 µM	–
OCCN1CN(CCO)CN(c2nc(N3CN(CCO)CN(CCO)C3)nc(N3CN(CCO)CN(CCO)C3)n2)C1	3.14 ng/mL	1.42 ng/mL
O=C1CCCC/C(=C/c2ccccc2)N1	> 100 µM	–
O=C1CN=C(C[N+](=O)[O-])c2ccccc21	> 100 µM	–
CCCCN(CCCC)CC(C(=O)Nc1ccc([N+](=O)[O-])cc1[N+](=O)[O-])/C(C)=N\NC(=S)NN (stereo not given)	> 100 µM	–
S=C(N/N=C/c1ccco1)NC12CC3CC(CC(C3)C1)C2	> 100 µM	–
CS(=O)(=O)N/N=C/CN1C(=O)c2ccccc2C1=O	> 100 µM	–
Ic1ccc(Nc2nc3nonc3nc2Nc2ccc(I)cc2)cc1	0.772 µM	0.2 µM
CC(=O)O.CC(=O)O.CC(=O)O.CC(=O)O.CC(=O)O.CC(=O)O.O.[Ti].[Ti]	> 100 µM	> 100 µM
COC(=O)C1=C(c2ccc3c(c2)OCO3)O[C@H](c2cc(OC)c(OC)c(OC)c2)[C@H]1COC(C)=O	56 µM	–
COc1ccc(OC)c(NC(=O)C(=O)NNC(=O)c2sc(NNC(C)=O)nc2C)c1	61.5 µM	–
O=C(Nc1ccc(OS(=O)(=O)c2ccccc2)cc1)C12CC3CC(CC(C3)C1)C2	> 100 µM	13.5 µM
O=[N+]([O-])c1nccn1CC(O)c1ccc(F)cc1 (stereo not given)	> 100 µM	–
COc1ccc(NC(=O)CCc2cc(-c3ccc(O)c(OC)c3)nc(NC#N)n2)cc1	> 100 µM	–
COC(=O)c1cc2c3ccccc3n(C(C)=O)c2cn1	> 100 µM	–
O=C1c2ccccc2C2(Br)C(=O)c3ccccc3C12 (stereo not given)	> 100 µM	–
O=S(=O)([O-])c1ccc2c(c1)-c1nc-2nc2[n-]c(nc3nc(nc4[n-]c(n1)c1ccc(S(=O)(=O)[O-])cc41)-c1cc(S(=O)(=O)[O-])ccc1-3)c1ccc(S(=O)(=O)[O-])cc21.[Cu+2].[Na+]	> 100 µM	> 100 µM
COc1ccc(N(C)c2ncnc3occ(C)c23)cc1	> 100 µM	29.6 µM
CCCCOC(=O)C1C(c2ccc(Cl)cc2)NC(c2ccc(Cl)cc2)C(C(=O)OCCCC)S1(=O)=O (stereo not given)	> 100 µM	–

Compound	TGI	GI50
Cc1cc(Br)cc(C)c1NC(=O)C(=O)C(C(=O)c1ccc2ccccc2c1)C1OC(=O)c2ccccc21 (stereo not given)	17.5 µM	–
CCOC(=O)Oc1c(OC)cc(C(=O)NC2CCc3cc(OC)c(OC)c(OC)c3-c3ccc(SC)c(=O)cc32)cc1OC (stereo not given)	> 70 µM	< 0.007 µM
CC(=O)Nc1ccc(C(=O)NN2C(=O)C(Cl)C2c2ccccc2)cc1 (stereo not given)	> 100 µM	–
CC(C)(C)OC(=O)NCC(=O)OCc1ccccc1	> 100 µM	–
Cc1ccc(SC(C)/C=C/NNC2=NC(c3ccccc3)C(c3ccccc3)=NN2)cc1 (stereo not given)	> 100 µM	–
CC(C)(C)[SiH]12(OC(C(F)(F)F)(C(F)(F)F)c3ccccc31)OC(C(F)(F)F)(C(F)(F)F)c1ccccc12	27.7 µM	–
CSc1nc2c(nc(C)c(=O)n2C2OCC(OC(C)=O)C(OC(C)=O)C2OC(C)=O)c(=O)[nH]1 (stereo not given)	> 100 µM	–
O=S(O)CCCCSSCC(O)C(O)CSSCCCCS(=O)O (stereo not given)	21.6 µM and 26.7 µM	–
Clc1ccc2c(NCCCNc3nccc(Nc4ccc(Br)cc4)n3)ccnc2c1	3.4 µM	1.87 µM
Cc1ccccc1N1C(=O)/C(=C/c2ccc(N(CCC#N)CCC#N)cc2)N=C1c1cc([N+](=O)[O-])ccc1Cl	> 100 µM	–
COc1ccc(C2S/C(=C\c3ccccc3O)C(=O)N2NC(=O)Cc2ccccc2)cc1 (stereo not given)	> 100 µM	–
Cc1ccc(S(=O)(=O)NCC2CCCCC2=O)cc1 (stereo not given)	57.7 µM	–
CCC[CH2][Sn]([CH2]CCC)([CH2]CCC)[O]C(=O)CC	0.296 µM	0.145 µM
CC1OC(n2cc(F)c(=O)[nH]c2=O)C=CC1O (stereo not given)	> 100 µM	–
C=C(C=O)[C@@H]1C2OC(=O)C(=C)[C@@H]2CC(O)[C@@]1(C)CC (stereo not given in full)	26.9 µM	–
C=C(CCCCC)CN1CCCC1[C@@](C)(O)CC(=O)OCC (stereo not given in full)	> 100 µM	–
NC(=NCCCOc1ccc(Cl)cc1)Nc1ccc(C(F)(F)F)cc1	3.56 µM	1.72 µM
C=CC1CC12C(=O)C1OC2(C)C2C(=O)c3cc4ccccc4cc3C(=O)C12 (stereo not given)	65.5 µM	21.5 µM
O=C1c2ccccc2C(=O)C1(Cl)C1(S(=O)(=O)O)c2ccccc2-c2ccccc21	> 100 µM	–
